Assay: xn = mol fraction of the nth substance listed
Conditions: Liquid

CCCCCCCCCC [decane] + O=C=O
Conditions	mass density [kg/m3]
303.04 K, 8020 kPa, x2 = 0.869	798.45
303.15 K, 9990 kPa, x2 = 0.4698	756.27
303.15 K, 11990 kPa, x2 = 0.4698	758.43
303.15 K, 14000 kPa, x2 = 0.4698	760.53
303.15 K, 15980 kPa, x2 = 0.4698	762.54
303.15 K, 17990 kPa, x2 = 0.4698	764.51
303.15 K, 19010 kPa, x2 = 0.2361	748.64
303.15 K, 19010 kPa, x2 = 0.4698	765.49
303.16 K, 7980 kPa, x2 = 0.2361	740.1
303.16 K, 8020 kPa, x2 = 0.4698	754.05
303.16 K, 9970 kPa, x2 = 0.2361	741.73
303.16 K, 12020 kPa, x2 = 0.2361	743.35
303.16 K, 16020 kPa, x2 = 0.2361	746.43
303.17 K, 14020 kPa, x2 = 0.2361	744.91
303.17 K, 18020 kPa, x2 = 0.2361	747.92
303.31 K, 10030 kPa, x2 = 0.869	807.43
303.31 K, 14030 kPa, x2 = 0.869	824.12
303.31 K, 18050 kPa, x2 = 0.869	837.96
303.36 K, 12020 kPa, x2 = 0.869	816.02
303.37 K, 16020 kPa, x2 = 0.869	831.09
313 K, 7980 kPa, x2 = 0.71	763.24
313 K, 9940 kPa, x2 = 0.71	767.44
313 K, 13970 kPa, x2 = 0.71	775.3
313.01 K, 11690 kPa, x2 = 0.71	770.91
313.01 K, 18020 kPa, x2 = 0.71	782.43
313.03 K, 16020 kPa, x2 = 0.71	778.96
313.06 K, 13970 kPa, x2 = 0.4698	750.5
313.07 K, 15990 kPa, x2 = 0.4698	752.76
313.09 K, 17990 kPa, x2 = 0.4698	754.91
313.09 K, 19000 kPa, x2 = 0.4698	755.97
313.1 K, 8010 kPa, x2 = 0.4698	743.23
313.11 K, 11990 kPa, x2 = 0.4698	748.15
313.12 K, 10010 kPa, x2 = 0.4698	745.74
313.13 K, 16010 kPa, x2 = 0.2361	738.82
313.13 K, 18010 kPa, x2 = 0.2361	740.41
313.14 K, 10010 kPa, x2 = 0.2361	733.81
313.14 K, 19020 kPa, x2 = 0.2361	741.18
313.15 K, 7990 kPa, x2 = 0.2361	732.05
313.15 K, 14010 kPa, x2 = 0.2361	737.19
313.16 K, 12000 kPa, x2 = 0.2361	735.5
313.23 K, 18020 kPa, x2 = 0.869	812.48
313.27 K, 10000 kPa, x2 = 0.869	776.26
313.31 K, 14000 kPa, x2 = 0.869	796.68
313.33 K, 12000 kPa, x2 = 0.869	787.12
313.36 K, 7990 kPa, x2 = 0.869	762.46
313.37 K, 16040 kPa, x2 = 0.869	804.9
323.02 K, 8000 kPa, x2 = 0.71	747.45
323.02 K, 18230 kPa, x2 = 0.71	769.63
323.09 K, 14030 kPa, x2 = 0.71	761.43
323.11 K, 16040 kPa, x2 = 0.71	765.46
323.12 K, 9940 kPa, x2 = 0.71	752.26
323.13 K, 18030 kPa, x2 = 0.2361	732.88
323.15 K, 8010 kPa, x2 = 0.4698	732.04
323.15 K, 9980 kPa, x2 = 0.4698	734.86
323.15 K, 11970 kPa, x2 = 0.71	756.86
323.15 K, 12030 kPa, x2 = 0.2361	727.66
323.15 K, 16020 kPa, x2 = 0.2361	731.17
323.15 K, 18000 kPa, x2 = 0.4698	745.11
323.15 K, 19000 kPa, x2 = 0.4698	746.27
323.15 K, 19020 kPa, x2 = 0.2361	733.69
323.16 K, 14030 kPa, x2 = 0.2361	729.45
323.17 K, 12020 kPa, x2 = 0.4698	737.61
323.17 K, 15980 kPa, x2 = 0.4698	742.66
323.18 K, 8030 kPa, x2 = 0.2361	723.85
323.18 K, 9970 kPa, x2 = 0.2361	725.74
323.19 K, 13990 kPa, x2 = 0.4698	740.16
323.29 K, 16020 kPa, x2 = 0.869	778.27
323.3 K, 10010 kPa, x2 = 0.869	740.74
323.3 K, 18080 kPa, x2 = 0.869	787.62

Source: the NIST ThermoML archive (doi:10.1021/je300388b)
